Source: US6001884A, “Calcium receptor-active molecules” (NPS Pharmaceuticals, Inc., priority 1995, dated 1999)
Structures can show the parent of a compound that is named as a salt. Where two headings read alike, the source gives them in different places.

Biological target: T1, calcium receptor (Homo sapiens, UniProt P41180)
T1 sequence (P41180 20-1078): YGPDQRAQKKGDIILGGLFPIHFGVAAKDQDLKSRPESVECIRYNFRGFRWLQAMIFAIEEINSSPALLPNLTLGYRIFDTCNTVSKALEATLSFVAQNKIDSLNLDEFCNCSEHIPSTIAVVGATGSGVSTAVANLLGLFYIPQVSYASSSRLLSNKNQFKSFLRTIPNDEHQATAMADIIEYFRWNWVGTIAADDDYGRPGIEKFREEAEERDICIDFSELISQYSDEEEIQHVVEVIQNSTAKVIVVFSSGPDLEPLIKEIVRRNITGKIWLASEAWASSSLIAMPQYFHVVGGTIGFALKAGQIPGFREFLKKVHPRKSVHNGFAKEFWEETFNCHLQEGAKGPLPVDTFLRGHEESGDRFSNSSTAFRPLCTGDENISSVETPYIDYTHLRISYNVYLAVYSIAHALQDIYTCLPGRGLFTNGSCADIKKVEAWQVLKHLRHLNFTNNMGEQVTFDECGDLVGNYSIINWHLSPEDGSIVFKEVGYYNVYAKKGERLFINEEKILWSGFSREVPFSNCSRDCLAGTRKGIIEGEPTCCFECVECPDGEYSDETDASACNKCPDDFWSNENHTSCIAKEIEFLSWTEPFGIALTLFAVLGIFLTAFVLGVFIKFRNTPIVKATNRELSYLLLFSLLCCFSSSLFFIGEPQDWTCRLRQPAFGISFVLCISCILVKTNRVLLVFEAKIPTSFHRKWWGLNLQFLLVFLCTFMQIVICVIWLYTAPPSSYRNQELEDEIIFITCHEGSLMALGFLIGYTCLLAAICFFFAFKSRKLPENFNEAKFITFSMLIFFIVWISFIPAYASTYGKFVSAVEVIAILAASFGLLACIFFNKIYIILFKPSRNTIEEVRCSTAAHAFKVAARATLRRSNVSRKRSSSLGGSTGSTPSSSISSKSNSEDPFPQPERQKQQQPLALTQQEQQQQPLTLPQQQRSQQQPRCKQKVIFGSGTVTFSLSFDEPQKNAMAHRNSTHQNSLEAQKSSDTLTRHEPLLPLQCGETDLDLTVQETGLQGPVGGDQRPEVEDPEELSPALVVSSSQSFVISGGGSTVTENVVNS
Experiment: EC50 (concentration evoking a half-maximal effect) at an inorganic ion receptor / calcium receptor
Format: cell-based
Source text: The EC50 is the concentration of the molecule which evokes a half-maximal effect. The IC50 is the concentration of molecule which causes a half-maximal blocking effect. The EC50 or IC50 can be determined by assaying one or more of the activities of an inorganic ion at an inorganic ion receptor. Preferably, such assays are specific to a particular calcium receptor. For example, assays which measure hormones whose production or secretion is modulated by a particular inorganic ion receptor are preferred.
Nemeth et al., PCT/US93/01642, International Publication Number WO 94/18959. For example, poly(A)^+ mRNA can be obtained from cells expressing a calcium receptor, such as a parathyroid cell, bone osteoclast, juxtaglomerular kidney cell, proximal tubule kidney cell, distal tubule kidney cell, cell of the thick ascending limb of Henle's loop and/or collecting duct, keratinocyte in the epidermis, parafollicular cell in the thyroid (C-cell), intestinal cell, central nervous cell, peripheral nervous system cell, trophoblast in the placenta, platelet, vascular smooth muscle cell, cardiac atrial cell, gastrin-secreting cell, glucagon-secreting cell, kidney mesangial cell, mammary cell, beta cell, fat/adipose cell, immune cell, and GI tract cell. Preferably, the nucleic acid is from a parathyroid cell, C-cell, or osteoclast. More preferably, the nucleic acid encodes a calcium receptor and is present on a plasmid or vector.

[1] = concentration of the molecule which evokes a half-maximal effect, preferred agents, cell type and assay read-out not stated, read-out: EC50

Row | SMILES | EC50 [1] [µM] | EC50 [µM]
1 | C[C@@H](N[C@H](C)c1cccc2ccccc12)c1ccc2ccccc2c1 [Compound 9R, (R)-N-(1-(2-naphthyl)ethyl)-(R)-1-(1-naphthyl)ethylamine hydrochloride] | < 5 | –
2 | COc1cccc([C@@H](C)NCCCc2ccccc2C)c1 [Compound 12U, N-3-(2-methylphenyl)-1-propyl-(R)-3-methoxy-α-methylbenzylamine hydrochloride] | < 5 | –
3 | CSc1cccc(C(C)NCCCc2ccccc2)c1 (racemic) [Compound 8J, N-(3-phenylpropyl)-1-(3-thiomethylphenyl)ethylamine hydrochloride] | < 5 | –
4 | COc1cccc([C@@H](C)NCCCc2ccccc2OC)c1 [Compound 8U, N-3-(2-methoxyphenyl)-1-propyl-(R)-3-methoxy-α-methylbenzylamine hydrochloride] | < 5 | –
5 | CC(C)c1ccc(CN[C@H](C)c2cccc3ccccc23)cc1 [Compound 11X, N-(4-Isopropylbenzyl)-(R)-1-(1-naphthyl)ethylamine hydrochloride] | < 5 | –
6 | C[C@@H](NCCCc1ccccc1Cl)c1cccc2ccccc12 [Compound 12Z, N-3-(2-chlorophenyl)-1-propyl-(R)-1-(1-naphthyl)ethylamine hydrochloride] | – | < 5

Continued, in another order:

Row | EC50 [1] [µM] | SMILES | EC50 [µM]
7 | < 5 | COc1ccc([C@@H](C)N[C@H](C)c2cccc3ccccc23)cc1 [Compound 14U, (R)-N-(1-(4-methoxyphenyl)ethyl)-(R)-1-(1-naphthyl)ethylamine hydrochloride] | –
8 | < 5 | COc1cccc([C@@H](C)NCCCc2cccc(C)c2)c1 [Compound 12V, N-3-(3-methylphenyl)-1-propyl-(R)-3-methoxy-α-methylbenzylamine hydrochloride] | –
9 | < 5 | COc1ccc(CN[C@H](C)c2cccc3ccccc23)cc1Cl [Compound 16M, N-(3-chloro-4-methoxybenzyl)-(R)-1-(1-naphthyl)ethylamine hydrochloride] | –
10 | < 5 | COc1ccc([C@@H](C)N[C@H](C)c2cccc3ccccc23)cc1C [Compound 16P, (R)-N-(1-(4-Methoxy-3-methylphenyl)ethyl)-(R)-1-(1-naphthyl)ethylamine hydrochloride] | –
